Reference: patent US20090252013A1, “HYDRAZIDE CHELATE COMPLEX COMPOUND, OPTICAL RECORDING MEDIUM USING THE COMPOUND AND RECORDING METHOD THEREOF” (Mitsubishi Chemical Corporation, priority 2006, published 2009)

How the values were obtained:
[1] = Solubility test in coating solvent (2,2,3,3-tetrafluoropropanol); format: physicochemical; details: 20° C., result in words
Method: The dissolution is determined by whether or not residual crystals of the compound remain in the solvent when the compound and TFP are mixed with a predetermined concentration.
Then, the solution was dropped to filter paper (“No. 5C” quantitative filter paper manufactured by Toyo Roshi Kaisha), and dried at room temperature for 24 hours. It was visually observed whether or not crystal residues of undissolved components were present on the filter paper.

[2] = Light fastness test (xenon lamp) of dye recording layer; format: physicochemical; details: xenon lamp 0.55 W/m^2, 40 hours, 58° C., humidity 50%, absorbance at absorption maximum
Method: First, a solution containing a hydrazide chelate complex compound is applied over a substrate such that the film thickness after drying is about 50 nm, followed by drying, thus obtaining a layer containing the hydrazide chelate complex compound. The layer containing the resulting dye is irradiated with a xenon lamp (intensity 0.55 W/m^2) for a predetermined period of time under conditions at a temperature of 58° C. and a humidity of 50%. The absorbances at the absorption maximum wavelength before and after the irradiation are compared to obtain the dye residual ratio.
The resulting compound (A-6) was dissolved in 2,2,3,3-tetrafluoropropanol at a concentration of 1.0% by weight, and minute foreign particles were removed by filtration. Then, the resulting solution was dropped to an injection-molded polycarbonate substrate with a diameter of 120 mm and a thickness of 1.2 mm and coating was performed by spin coating (4,900 rpm), followed by drying at 80° C. for 30 minutes. […]
Under the conditions of temperature 58° C. and humidity 50%, a recording layer was irradiated with a xenon lamp at an irradiation intensity of 0.55 W/m^2 for 40 hours. Then, the dye residual ratio in the recording layer was determined on the basis of the absorbances before and after irradiation at the absorption maximum wavelength.

| Compound | solubility in a coating solvent at a concentration of 0.7% by weight [1] | solubility in a coating solvent at a concentration of 1.0% by weight [1] | dye residual ratio (after 40-hour light fastness test) [2] |
| --- | --- | --- | --- |
| CN1C(=CC=[N+]2N=C(c3ccccc3)[O][Cu-2]23[O]C(c2ccccc2)=N[N+]3=CC=C2N(C)c3ccccc3C2(C)C)C(C)(C)c2ccccc21 (centres unmarked) [Compound A-2] | completely dissolved | the amount of insolubles was slight | – |
| CCOC(=O)CC1=N[N+](=CC=C2N(C)c3ccccc3C2(C)C)[Co-2]2([O]1)[O]C(CC(=O)OCC)=N[N+]2=CC=C1N(C)c2ccccc2C1(C)C (centres unmarked) [Compound A-6] | completely dissolved | completely dissolved | 90% |
| CCOC(=O)CC1=N[N+](=CC=C2N(CC)c3ccccc3C2(C)Cc2ccccc2)[Co-2]2([O]1)[O]C(CC(=O)OCC)=N[N+]2=CC=C1N(CC)c2ccccc2C1(C)Cc1ccccc1 (centres unmarked) [Compound A-11] | completely dissolved | completely dissolved | 91% |
| CCN1C(=CC=[N+]2N=C(c3ccccc3)[O][Co-2]23[O]C(c2ccccc2)=N[N+]3=CC=C2N(CC)c3ccc(OC)cc3C2(C)C)C(C)(C)c2cc(OC)ccc21 (centres unmarked) [Compound A-86] | completely dissolved | completely dissolved | – |
| CCN1C(=CC=[N+]2N=C(c3cccc(OC)c3)[O][Co-2]23[O]C(c2cccc(OC)c2)=N[N+]3=CC=C2N(CC)c3ccc(OC)cc3C2(C)C)C(C)(C)c2cc(OC)ccc21 (centres unmarked) [Compound A-87] | completely dissolved | completely dissolved | – |
| CCOc1ccccc1C1=N[N+](=CC=C2N(CC)c3c(ccc4ccccc34)C2(C)C)[Co-2]2([O]1)[O]C(c1ccccc1OCC)=N[N+]2=CC=C1N(CC)c2c(ccc3ccccc23)C1(C)C (centres unmarked) [Compound A-88] | completely dissolved | completely dissolved | – |
| CCN1C(=CC=[N+]2N=C(c3ccccc3OC)[O][Co-2]23[O]C(c2ccccc2OC)=N[N+]3=CC=C2N(CC)c3ccc(OC)cc3C2(C)Cc2ccccc2)C(C)(Cc2ccccc2)c2cc(OC)ccc21 (centres unmarked) [Compound A-150] | completely dissolved | completely dissolved | – |
| CCN1C(=CC=[N+]2N=C(c3ccc(C(=O)OC)cc3)[O][Co-2]23[O]C(c2ccc(C(=O)OC)cc2)=N[N+]3=CC=C2N(CC)c3ccc(OC)cc3C2(C)Cc2cccc(F)c2)C(C)(Cc2cccc(F)c2)c2cc(OC)ccc21 (centres unmarked) [Compound A-152] | completely dissolved | completely dissolved | – |
| CCN(CC)C(=O)c1ccc(C2=N[N+](=CC=C3N(CC)c4ccc(OC)cc4C3(C)Cc3ccccc3)[Co-2]3([O]2)[O]C(c2ccc(C(=O)N(CC)CC)cc2)=N[N+]3=CC=C2N(CC)c3ccc(OC)cc3C2(C)Cc2ccccc2)cc1 (centres unmarked) [Compound A-159] | completely dissolved | completely dissolved | – |
| CCN1C(=CC=[N+]2N=C(c3ccc(C(=O)OC)cc3)[O][Co-2]23[O]C(c2ccc(C(=O)OC)cc2)=N[N+]3=CC=C2N(CC)c3ccc(OC)cc3C2(C)Cc2ccccc2)C(C)(Cc2ccccc2)c2cc(OC)ccc21 (centres unmarked) [Compound A-186] | completely dissolved | completely dissolved | – |
| CCCN(CCC)S(=O)(=O)c1ccc(C2=N[N+](=CC=C3N(CC)c4ccc(OC)cc4C3(C)Cc3ccccc3)[Co-2]3([O]2)[O]C(c2ccc(S(=O)(=O)N(CCC)CCC)cc2)=N[N+]3=CC=C2N(CC)c3ccc(OC)cc3C2(C)Cc2ccccc2)cc1 (centres unmarked) [Compound A-211] | completely dissolved | completely dissolved | – |
| CCN1C(=CC=[N+]2N=C(c3cccc(OCCOC)c3)[O][Co-2]23[O]C(c2cccc(OCCOC)c2)=N[N+]3=CC=C2N(CC)c3ccc(OC)cc3C2(C)Cc2ccccc2)C(C)(Cc2ccccc2)c2cc(OC)ccc21 (centres unmarked) [Compound A-212] | completely dissolved | completely dissolved | – |
| CN(C)c1ccc(C2=N/[N+](=C/c3ccccn3)[Co-2]3([O]2)[O]C(c2ccc(N(C)C)cc2)=N/[N+]3=C/c2ccccn2)cc1 [Compound B-4, reference compound] | the amount of insolubles was large | the amount of insolubles was large | – |
| [CH2-][N+]1=C\c2n(C)c3ccccc3[n+]2[Co-3]23([O]C(c4ccc(N(C)C)cc4)=N[N+]2=Cc2n(C)c4ccccc4[n+]23)[O]/C(c2ccc(N(C)C)cc2)=N\1 [Compound B-5, reference compound] | the amount of insolubles was large | the amount of insolubles was large | – |
| [CH2-][N+](=C\C=C\c1ccc(N(CC)CC)cc1)/N=C(\[O][Co-]1[O]C(c2c(C)cc(C)cc2C)=N/[N+]1=C/C=C/c1ccc(N(CC)CC)cc1)c1c(C)cc(C)cc1C [Compound B-6, reference compound] | the amount of insolubles was large | the amount of insolubles was large | – |
